Test results from patent US12398117B2, “Heteroarylamidopyridinol derivative and pharmaceutical composition comprising same as active ingredient for prevention or treatment of autoimmune disease” (INNOVO THERAPEUTICS INC., priority 2019, dated 2025).

Legend:
[1] = tested on: adhesion of intestinal epithelial cells (HT-29) and monocytic cells (U937) induced by TNF-α; assay: Inhibition of TNF-α-induced adhesion of monocytes and intestinal epithelial cells; type: cell-based, human; details: for inhibition at 1 µM: Homo sapiens, read-out: Inhibitory activity (%)
Description: HT-29 human colon cancer-derived epithelial cells and U937 human-derived monocytes were cultured in RPMI 1640 medium containing 10% FBS and 1% penicillin/streptomycin (PS) in a 37° C., 5% CO2 incubator. When the cells grew more than 80% of the bottom area of the culture flask, they were passaged at a ratio of 1:3 and used in this experiment. HT-29 cells were cultured in a 24-well plate at the density of 2×10^5 cells/cm^2, and the test drug was pretreated in a medium containing 1% FBS and 1% PS for 1 hour. Thereafter, 10 μg/mL of BCECF-AM was treated thereto and reacted at 37° C. for 30 minutes. U937 cells loaded with BCECF and TNF-α (10 ng/mL) were reacted with HT-29 cells previously treated with the test drug at 37° C. for 3 hours. Upon completion of the reaction, the medium was removed, and the culture flask was washed twice with PBS to remove non-adherent U937 cells. In the next step, the cells were lysed by treating with 0.1% Triton X-100 (0.1 M Tris) and reacted at room temperature for 30 minutes. Then, fluorescence was measured and quantified using a fluostar optima microplate reader (BMG Labtechnologies, Germany) (Carvalho et al., 1996; Thapa et al., 2008).

[2] = tested on: adhesion of intestinal epithelial cells (HT-29) and monocytic cells (U937) induced by IL-6; assay: Inhibition of IL-6-induced adhesion of monocytes and intestinal epithelial cells; type: cell-based, human; details: for inhibition at 1 µM: Homo sapiens, 3 h, test drug 1 μM, IL-6 10 ng/mL, HT-29/U937, read-out: inhibitory activity (%)
Description: The inhibitory activity test for intestinal epithelial cell-monocyte adhesion by IL-6 was performed using the same method as in the case of TNF-α. HT-29 cells were cultured in a 24-well plate at the density of 2×10^5 cells/cm^2, and the test drug was pretreated in a medium containing 1% FBS and 1% PS for 1 hour. Thereafter, 10 μg/mL of BCECF-AM was treated thereto and reacted at 37° C. for 30 minutes. U937 cells loaded with BCECF and IL-6 (10 ng/mL) were reacted with HT-29 cells previously treated with the test drug at 37° C. for 3 hours. Upon completion of the reaction, the medium was removed, and the culture flask was washed twice with PBS to remove non-adherent U937 cells. In the next step, the cells were lysed by treating with 0.1% Triton X-100 (0.1 M Tris) and reacted at room temperature for 30 minutes. Then, fluorescence was measured and quantified using a fluostar optima microplate reader (BMG Labtechnologies, Germany).

[3] = test drug 1 μM, TNF-α 10 ng/mL, HT-29/U937

IC50 ([1]; inhibition of adhesion by TNF-α) [mM]	IC50 ([2]; inhibition of adhesion by IL-6) [mM]	SMILES	Inhibitory activity (%) [1, 3] [%]	inhibition at 1 µM [1, 3] [%]	inhibition at 1 µM [2] [%]
18.1	25.1	Nc1ccc(O)c(C(=O)O)c1 [Compound 5-ASA, 5-ASA, reference compound]	3.8	–	–
–	–	Cc1nc(NC(=O)c2cc3ccccc3[nH]2)c(C)c(C)c1O [Compound X-01, N-(5-hydroxy-3,4,6-trimethylpyridin-2-yl)-1H-indole-2-carboxamide]	–	43.2	34
–	–	Cc1nc(NC(=O)c2cc3ccccc3n2C)c(C)c(C)c1O [Compound X-02, N-(5-hydroxy-3,4,6-trimethylpyridin-2-yl)-1-methyl-1H-indole-2-carboxamide]	–	29.1	21.1
–	–	Cc1nc(NC(=O)c2cc3cccc(Br)c3[nH]2)c(C)c(C)c1O [Compound X-03, 7-bromo-N-(5-hydroxy-3,4,6-trimethylpyridin-2-yl)-1H-indole-2-carboxamide]	–	14.5	5
–	–	Cc1nc(NC(=O)c2cc3ccc(Cl)cc3[nH]2)c(C)c(C)c1O [Compound X-04, 6-chloro-N-(5-hydroxy-3,4,6-trimethylpyridin-2-yl)-1H-indole-2-carboxamide]	–	30.3	25.1
–	–	Cc1nc(NC(=O)c2cc3ccc(Br)cc3[nH]2)c(C)c(C)c1O [Compound X-05, 6-bromo-N-(5-hydroxy-3,4,6-trimethylpyridin-2-yl)-1H-indole-2-carboxamide]	–	7.5	3.4
–	–	Cc1nc(NC(=O)c2cc3cc(F)ccc3[nH]2)c(C)c(C)c1O [Compound X-06, 5-fluoro-N-(5-hydroxy-3,4,6-trimethylpyridin-2-yl)-1H-indole-2-carboxamide]	–	49.9	42.9
–	–	Cc1nc(NC(=O)c2cc3cc(Cl)ccc3[nH]2)c(C)c(C)c1O [Compound X-08, 5-chloro-N-(5-hydroxy-3,4,6-trimethylpyridin-2-yl)-1H-indole-2-carboxamide]	–	31	21.3
–	–	Cc1nc(NC(=O)c2cc3cc(C(F)(F)F)ccc3[nH]2)c(C)c(C)c1O [Compound X-10, N-(5-hydroxy-3,4,6-trimethylpyridin-2-yl)-5-(trifluoromethyl)-1H-indole-2-carboxamide]	–	≥ 50	47.9
–	–	Cc1nc(NC(=O)c2cc3cc(OC(F)(F)F)ccc3[nH]2)c(C)c(C)c1O [Compound X-11, N-(5-hydroxy-3,4,6-trimethylpyridin-2-yl)-5-(trifluoromethoxy)-1H-indole-2-carboxamide]	–	32.8	24.2
–	–	COc1ccc2cc(C(=O)Nc3nc(C)c(O)c(C)c3C)[nH]c2c1 [Compound X-12, N-(5-hydroxy-3,4,6-trimethylpyridin-2-yl)-6-methoxy-1H-indole-2-carboxamide]	–	≥ 50	46
–	–	COc1ccc2[nH]c(C(=O)Nc3nc(C)c(O)c(C)c3C)cc2c1 [Compound X-13, N-(5-hydroxy-3,4,6-trimethylpyridin-2-yl)-5-methoxy-1H-indole-2-carboxamide]	–	36.7	23.4
–	–	COc1cc2cc(C(=O)Nc3nc(C)c(O)c(C)c3C)[nH]c2cc1OC [Compound X-14, N-(5-hydroxy-3,4,6-trimethylpyridin-2-yl)-5,6-dimethoxy-1H-indole-2-carboxamide]	–	36.9	29.5
–	–	Cc1nc(NC(=O)c2cc3ccccc3o2)c(C)c(C)c1O [Compound X-15, N-(5-hydroxy-3,4,6-trimethylpyridin-2-yl)benzofuran-2-carboxamide]	–	4.8	42.4
–	–	Cc1nc(NC(=O)c2cc3cc(Cl)ccc3o2)c(C)c(C)c1O [Compound X-16, 5-chloro-N-(5-hydroxy-3,4,6-trimethylpyridin-2-yl)benzofuran-2-carboxamide]	–	25.1	15.1
–	–	Cc1nc(NC(=O)c2cc3cc(Br)ccc3o2)c(C)c(C)c1O [Compound X-17, 5-bromo-N-(5-hydroxy-3,4,6-trimethylpyridin-2-yl)benzofuran-2-carboxamide]	–	8.5	3.6
–	–	COc1cccc2cc(C(=O)Nc3nc(C)c(O)c(C)c3C)oc12 [Compound X-18, N-(5-hydroxy-3,4,6-trimethylpyridin-2-yl)-7-methoxybenzofuran-2-carboxamide]	–	≥ 50	48.8
–	–	Cc1nc(NC(=O)c2oc3ccccc3c2C)c(C)c(C)c1O [Compound X-19, N-(5-hydroxy-3,4,6-trimethylpyridin-2-yl)-3-methylbenzofuran-2-carboxamide]	–	25.1	18.7
–	–	Cc1nc(NC(=O)c2cc3ccccc3s2)c(C)c(C)c1O [Compound X-20, N-(5-hydroxy-3,4,6-trimethylpyridin-2-yl)benzo[b]thiophene-2-carboxamide]	–	16.5	27
–	–	Cc1nc(NC(=O)c2sc3ccccc3c2Cl)c(C)c(C)c1O [Compound X-21, 3-chloro-N-(5-hydroxy-3,4,6-trimethylpyridin-2-yl)benzo[b]thiophene-2-carboxamide]	–	13.4	11.4
–	–	Cc1nc(NC(=O)c2sc3ccccc3c2Br)c(C)c(C)c1O [Compound X-22, 3-bromo-N-(5-hydroxy-3,4,6-trimethylpyridin-2-yl)benzo[b]thiophene-2-carboxamide]	–	26.8	19.7
–	–	Cc1ccc2c(Cl)c(C(=O)Nc3nc(C)c(O)c(C)c3C)sc2c1 [Compound X-23, 3-chloro-N-(5-hydroxy-3,4,6-trimethylpyridin-2-yl)-6-methylbenzo[b]thiophene-2-carboxamide]	–	9.1	8.7
–	–	Cc1nc(NC(=O)c2sc3cc(Cl)ccc3c2Cl)c(C)c(C)c1O [Compound X-25, 3,6-dichloro-N-(5-hydroxy-3,4,6-trimethylpyridin-2-yl)benzo[b]thiophene-2-carboxamide]	–	19.5	9
–	–	COc1ccc2c(Cl)c(C(=O)Nc3nc(C)c(O)c(C)c3C)sc2c1 [Compound X-26, 3-chloro-N-(5-hydroxy-3,4,6-trimethylpyridin-2-yl)-6-methoxybenzo[b]thiophene-2-carboxamide]	–	45.1	38.4
–	–	COc1c(C)nc(NC(=O)c2sc3cc(F)ccc3c2Cl)c(C)c1C [XI-01, 3-chloro-6-fluoro-N-(5-methoxy-3,4,6-trimethylpyridin-2-yl)benzo[b]thiophene-2-carboxamide]	–	9.3	4.7
–	–	COc1c(C)nc(N(C)C(=O)c2sc3cc(F)ccc3c2Cl)c(C)c1C [XI-02, 3-chloro-6-fluoro-N-(5-methoxy-3,4,6-trimethylpyridin-2-yl)-N-methylbenzo[b]thiophene-2-carboxamide]	–	18.5	10.9
–	–	Cc1nc(NC(=O)c2sc3cc(F)ccc3c2Cl)c(C)c(C)c1OCC(=O)NC(C)C [XI-03, 3-chloro-6-fluoro-N-(5-(2-(isopropylamino)-2-oxoethoxy)-3,4,6-trimethylpyridin-2-yl)benzo[b]thiophene-2-carboxamide]	–	≥ 50	49.9
–	–	Cc1nc(NC(=O)c2sc3cc(F)ccc3c2Cl)c(C)c(C)c1OCC(=O)NC1CC1 [XI-04, 3-chloro-N-(5-(2-(cyclopropylamino)-2-oxoethoxy)-3,4,6-trimethylpyridin-2-yl)-6-fluorobenzo[b]thiophene-2-carboxamide]	–	13.9	6.5
–	–	Cc1nc(NC(=O)c2sc3cc(F)ccc3c2Cl)c(C)c(C)c1OCC(=O)NC1CCCCC1 [XI-05, 3-chloro-N-(5-(2-(cyclohexylamino)-2-oxoethoxy)-3,4,6-trimethylpyridin-2-yl)-6-fluorobenzo[b]thiophene-2-carboxamide]	–	25.5	14.5
–	–	Cc1nc(NC(=O)c2sc3cc(F)ccc3c2Cl)c(C)c(C)c1OCC(=O)NCc1ccccc1 [XI-06, N-(5-(2-(benzylamino)-2-oxoethoxy)-3,4,6-trimethylpyridin-2-yl)-3-chloro-6-fluorobenzo[b]thiophene-2-carboxamide]	–	≥ 50	54.1
